Source: US20090264415A2 (priority 2004, published 2009)
Read-outs that look alike come from different tables or passages of the source.

Key:
[1] = test system: peripheral blood mononuclear cells (PBMC) stimulated with allogeneic PBMC or EBV-transformed human B cells (RPMI1788); test: Mixed lymphocyte reaction (MLR) assay; assay type: cell-based; conditions: 50% suppression of the MLR, [3H]-thymidine incorporation, read-out: MLR
Method in brief: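 Responder PBMC co-cultured in triplicate with 30 Gy-irradiated allogeneic PBMC or RPMI1788 B cells plus compound (DMSO stock 10 mM, diluted in medium). After 5 days at 37° C, 1 μCi [3H]-thymidine added for 16 h more; incorporated cpm counted and proliferation inhibition calculated.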

[2] = test system: production of human TNF-α by PBMC in response to LPS; test: TNF-α assay (LPS-stimulated PBMC, sandwich ELISA); assay type: cell-based; conditions: LPS 1 μg/ml, 72 hours, read-out: TNF α
Description: Peripheral blood mononuclear cells (herein referred as PBMC), in response to stimulation by lipopolysaccharide (hereinafter LPS), a gram-negative bacterial endotoxin, produce various […], in particular human TNF-α. Inhibition of the activation of PBMC can therefore be measured by the level of suppression of the production of TNF-α by PBMC in response to stimulation by LPS. Inhibition measurement was performed as follows: PBMC were isolated from heparinized peripheral blood by density gradient centrifugation over Lymphoprep (commercially available from Nycomed, Norway). LPS was then added to the PMBC suspension in complete medium (10^6 cells/ml) at a final concentration of 1 μg/ml. The pteridine derivative to be tested was added at different concentrations (0.1 μM, 1 μM and 10 μM) and the cells were incubated at 37° C. for 72 hours in 5% CO2. The supernatants were collected, then TNF-α concentrations were measured with respectively an anti-TNF-α antibody in a sandwich ELISA (Duo Set ELISA human TNFα, commercially available from R&D Systems, United Kingdom). The colorimetric reading of the ELISA was measured by a Multiskan RC plate reader (commercially available from ThermoLabsystems, Finland) at 450 nm (reference wavelength: 690 nm). Data analysis was performed with Ascent software 2.6. (also from ThermoLabsystems, Finland): a standard curve (recombinant human TNFα) was drawn and the amount (pg/ml) of each sample on the standard curve was determined. The % suppression of human TNFα production by the pyrido[3,2-d]pyrimidine derivatives of the invention was calculated using the formula: [formula]

[3] = test system: phosphodiesterase-4 (PDE-4) extract from U937 cells; test: Phosphodiesterase-4 inhibiting activity (isotopic two-step method); assay type: biochemical; conditions: for IC50: 1.01 μM [3H]cAMP+cAMP

SMILES | IC50 [1] [nM] | PDE-4 (% inhibition) ([3]; @ 10 μM) | IC50 [2] [nM] | also measured
COc1ccc(-c2ccc3nc(N)nc(OC(C)C)c3n2)cc1OC [Example 24, 2-amino-4-isopropoxy-6-(3,4-dimethoxyphenyl)pyrido[3,2-d]pyrimidine] |  |  |  | IC50 ([1]; Homo sapiens, RPMI-1788): 66 nM; IC50 ([2]; Homo sapiens, PBMC): 500 nM; PDE-4 (% inhibition) ([3]; @ 0.5 μM): 29% @ 0.5 μM
Cc1ccc(-c2ccc3ncnc(N4CCN(C(=O)Nc5cccc(Cl)c5)CC4)c3n2)cc1C [Example 81] | 500 | 12% @ 10 μM |  | 
COc1ccc(-c2ccc3ncnc(N4CCN(C(=O)Nc5ccc(F)c(Cl)c5)CC4)c3n2)cc1OC [Example 108, 4-[(N-3-chloro-4-fluorophenylcarbamoyl)-piperazin-1-yl]-6-(3,4-dimethoxy-phenyl)-pyrido[3,2-d]pyrimidine] | 60 |  | 200 | PDE-4 (% inhibition) ([3]; @ 0.2 μM): 59% @ 0.2 μM
COc1ccc(-c2ccc3ncnc(N4CCN(C(=O)Nc5cccc(C)c5)CC4)c3n2)cc1OC [Example 8] |  |  |  | IC50 ([1]; Homo sapiens, RPMI-1788): 9.4 nM; IC50 ([2]; Homo sapiens, PBMC): 70 nM; IC50 [3]: 16 nM
COc1ccc(-c2ccc3ncnc(N4CCN(C(=O)COc5ccc(Cl)cc5)CC4)c3n2)cc1OC [Example 113, 4-[(N-4-chlorophenoxy-acetyl)-piperazin-1-yl]-6-(3,4-dimethoxyphenyl)-pyrido[3,2-d]pyrimidine] | 40 |  | 300 | PDE-4 (% inhibition) ([3]; @ 0.4 μM): 77% @ 0.4 μM
COc1ccc(-c2ccc3ncnc(N4CCN(C(=O)Nc5cccc(Cl)c5)CC4)c3n2)cc1Cl [Example 79, 4-[(N-3-chlorophenylcarbamoyl)-piperazin-1-yl]-6-(3-chloro-4-methoxyphenyl)-pyrido[3,2-d]pyrimidine] | 300 | 67% @ 10 μM |  | 
COc1ccc(-c2ccc3nc(N)nc(N4CCN(CC(=O)Nc5nccs5)CC4)c3n2)cc1OC [Example 48, 2-amino-4-[2-(piperazin-1-yl)-acetic acid N-(2-thiazolyl)-amide]-6-(3,4-dimethoxyphenyl)-pyrido[3,2-d]pyrimidine] | 60 |  | 60 | PDE-4 (% inhibition) ([3]; @ 0.06 μM): 59% @ 0.06 μM
COc1ccc(-c2ccc3nc(N)nc(N4CCN(C(=O)COc5ccc(Cl)cc5)CC4)c3n2)cc1OC [Example 59, 2-amino-4-[(N-4-chloro-phenoxy-acetyl)-piperazin-1-yl]-6-(3,4-dimethoxyphenyl)-pyrido[3,2-d]pyrimidine] |  |  |  | IC50 ([1]; Homo sapiens, RPMI-1788): 16 nM; IC50 [3]: 34 nM
COc1ccc(-c2ccc3ncnc(N4CCN(C(=O)Nc5cccs5)CC4)c3n2)cc1OC [Example 109] | 60 |  | 130 | PDE-4 (% inhibition) ([3]; @ 0.09 μM): 58% @ 0.09 μM
O=C(Nc1cccc(Cl)c1)N1CCN(c2ncnc3ccc(-c4ccc5c(c4)OCCO5)nc23)CC1 [Example 80, 4-[(N-3-chlorophenylcarbamoyl)-piperazin-1-yl]-6-(1,4-benzodioxan-6-yl)-pyrido[3,2-d]pyrimidine] | 300 | 17% @ 10 μM |  | 
COc1ccc(-c2ccc3nc(N)nc(N4CCN(C(=O)Nc5ccsc5)CC4)c3n2)cc1OC [Example 54, 2-amino-4(N-3-thienylcarbamoyl-piperazin-1-yl)-6-(3,4-dimethoxyphenyl)-pyrido[3,2-d]pyrimidine] | 2 |  | 50 | PDE-4 (% inhibition) ([3]; @ 0.1 μM): 62% @ 0.1 μM
O=C(Nc1cccc(Cl)c1)N1CCN(c2ncnc3ccc(-c4ccc(Cl)c(Cl)c4)nc23)CC1 [Example 84] | 700 | 22% @ 10 μM |  | 
COc1ccc(-c2ccc3nc(N)nc(N4CCN(C(=O)Nc5cccc(Cl)c5)CC4)c3n2)cc1OC [Example 58, 2-amino-4(N-3-chloro-phenyl-carbamoyl-piperazin-1-yl)-6-(3,4-dimethoxy-phenyl)-pyrido[3,2-d]pyrimidine] | 0.4 |  | 260 | PDE-4 (% inhibition) ([3]; @ 0.1 μM): 75% @ 0.1 μM
O=C(Nc1cccc(Cl)c1)N1CCN(c2ncnc3ccc(-c4ccc5c(c4)OCO5)nc23)CC1 [Example 82, 4-[(N-3-chlorophenylcarbamoyl)-piperazin-1-yl]-6-(3,4-methylenedioxy)phenyl-pyrido[3,2-d]pyrimidine] | 300 | 31% @ 10 μM |  | 
COc1cc(-c2ccc3ncnc(N4CCN(C(=O)Nc5cccc(Cl)c5)CC4)c3n2)ccc1OCC1CC1 [Example 211, 4-[N-(3-chloro-phenylcarbamoyl)-piperazin-1-yl]-6-(3-methoxy-4-cyclopropylmethoxy-phenyl)-pyrido[3,2-d]pyrimidine] | 400 | 16% @ 10 μM |  | 
COc1ccc(-c2ccc3nc(N)nc(N4CCN(C(C)=O)CC4)c3n2)cc1OC [Example 49, 2-amino-4-(N-acetyl-piperazinyl)-6-(3,4-dimethoxyphenyl)-pyrido[3,2-d]pyrimidine] | 70 |  | 40 | PDE-4 (% inhibition) ([3]; @ 0.04 μM): 48% @ 0.04 μM
COc1ccc(-c2ccc3nc(N)nc(NCCNC(=O)Nc4cccc(C)c4)c3n2)cc1OC [Example 261, 2-amino-4-[(3-methylphenylcarbamoyl)-ethylenediamine-1-N-yl]-6-(3,4-dimethoxyphenyl)-pyrido[3,2-d]pyrimidine] |  | 86% @ 10 μM |  | IC50 ([1]; Homo sapiens, RPMI-1788): 80 nM; IC50 ([2]; Homo sapiens, PBMC): 800 nM
Nc1nc(N2CCN(C(=O)COc3ccc(Cl)cc3)CC2)c2nc(-c3ccc(F)cc3)ccc2n1 [Example 207, 2-amino-4-[(N-4-chloro-phenoxy-acetyl)-piperazin-1-yl]-6-(4-fluorophenyl)-pyrido[3,2-d]pyrimidine] | 30 | 34% @ 10 μM |  | 
CCOc1ccc(-c2ccc3ncnc(N4CCN(C(=O)Nc5cccc(Cl)c5)CC4)c3n2)cc1Cl [Example 83] | 500 | 49% @ 10 μM |  | 
COc1ccc(-c2ccc3nc(N)nc(N4CCN(C(=O)Nc5cccc(Cl)c5)CC4)c3n2)cc1O [Example 212] |  |  |  | IC50 ([1]; Homo sapiens, RPMI-1788): 40 nM; IC50 ([2]; Homo sapiens, PBMC): 900 nM; PDE-4 (% inhibition) ([3]; @ 0.9 μM): 43% @ 0.9 μM
COc1ccc(-c2ccc3nc(N)nc(N4CCN(C(=O)c5ccco5)CC4)c3n2)cc1OC [Example 51, 2-amino-4-[1-(2-furoyl)-piperazin-1-yl]-6-(3,4-dimethoxyphenyl)-pyrido[3,2-d]pyrimidine] | 30 |  |  | PDE-4 (% inhibition) ([3]; @ 0.03 μM): 63% @ 0.03 μM
CCOc1cc(-c2ccc3ncnc(N4CCN(C(=O)Nc5cccc(Cl)c5)CC4)c3n2)ccc1OC [Example 213, 4-[N-(3-chloro-phenylcarbamoyl)-piperazin-1-yl]-6-(3-ethoxy-4-methoxy-phenyl)-pyrido[3,2-d]pyrimidine] |  |  |  | IC50 ([1]; Homo sapiens, RPMI-1788): 57 nM; IC50 ([2]; Homo sapiens, PBMC): 60 nM; PDE-4 (% inhibition) ([3]; @ 0.06 μM): 78% @ 0.06 μM
COc1ccc(-c2ccc3nc(C)nc(N4CCN(C(=O)Nc5cccc(C)c5)CC4)c3n2)cc1OC [Example 11] | 26 |  | 500 | PDE-4 (% inhibition) ([3]; @ 0.5 μM): 69% @ 0.5 μM
COc1cc(-c2ccc3ncnc(N4CCN(C(=O)Nc5cccc(Cl)c5)CC4)c3n2)ccc1OC(C)C [Example 121] | 300 | 54% 10 μM |  | 
Cc1noc(C)c1-c1ccc2nc(N)nc(N3CCOCC3)c2n1 [Example 246, 2-amino-4-morpholino-6-[4-(3,5-dimethylisoxazolyl)]-pyrido[3,2-d]pyrimidine] | 5500 |  | 1600 | 
Nc1nc(N2CCN(CC(=O)Nc3nccs3)CC2)c2nc(-c3ccc4c(c3)OCO4)ccc2n1 [Example 191] |  |  |  | IC50 ([1]; Homo sapiens, RPMI-1788): 400 nM; IC50 ([2]; Homo sapiens, PBMC): 3500 nM
CCOc1ccc(-c2ccc3nc(N)nc(N4CCN(C(=O)Nc5ccc(F)cc5)CC4)c3n2)cc1OC [Example 102] | 40 |  | 600 | 
COc1ccc(-c2ccc3nc(N)nc(NC4CCN(C(=O)Nc5cccc(C)c5)CC4)c3n2)cc1OC [Example 263] |  |  |  | IC50 ([1]; Homo sapiens, RPMI-1788): 70 nM; IC50 ([2]; Homo sapiens, PBMC): 500 nM
COc1ccc(-c2ccc3nc(N)nc(NCc4ccccn4)c3n2)cc1OC [Example 35, 2-amino-4-[2-(aminomethyl)pyridino]-6-(3,4-dimethoxyphenyl)-pyrido[3,2-d]pyrimidine] | 800 |  | 700 | 
COc1ccc(-c2ccc3ncnc(N4CCN(c5ccc(C)cc5)CC4)c3n2)cc1OC [Example 105, 4-(4-methyl-phenyl-piperazin-1-yl)-6-(3,4-dimethoxy-phenyl)-pyrido[3,2-d]pyrimidine] | 800 |  | 90 | 
